Test results taken from the supplement of paper PMC10883282.

How the values were obtained:
Assay in all cases: relative viability vs DMSO control (72 h) (fraction); higher = more viable cells
RD-ES = tested on: RD-ES
Outline: (§1)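 Sarcoma cell lines were grown in 384-well plates seeded toward 80–90% confluence and exposed 24 h later to serially diluted compound. After 72 h at 37 °C and 5% CO2, with 0.1% DMSO vehicle and a 5 µM positive control on the plates, ATPLite was read. Relative viability, given as percent growth averaged over up to triplicate wells, was rescaled so that 1 is full and 0 is none.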

HS729 = tested on: HS729
Outline: as §1

RD = tested on: RD
Outline: as §1

HT1080 = tested on: HT1080
Outline: as §1

SW684 = tested on: SW684
Outline: as §1

SW1353 = tested on: SW1353
Outline: as §1

KHOS-240S = tested on: KHOS-240S
Outline: as §1

SYO-1 = tested on: SYO-1
Outline: as §1

KHOS-NP = tested on: KHOS-NP
Outline: as §1

SW872 = tested on: SW872
Outline: as §1

SK-LMS-1 = tested on: SK-LMS-1
Outline: as §1

G401 = tested on: G401
Outline: as §1

C[C@H](Nc1ncnc2nc[nH]c12)c1cc2cccc(Cl)c2c(=O)n1-c1ccccc1 [Duvelisib]
Conditions	relative viability
G401, 0.00017 µM	1.07
G401, 0.00051 µM	1.03
G401, 0.00152 µM	1.05
G401, 0.00457 µM	1.017
G401, 0.01372 µM	0.987
G401, 0.04115 µM	0.983
G401, 0.1235 µM	0.966
G401, 0.3704 µM	0.9339
G401, 1.111 µM	0.862
G401, 3.333 µM	0.763
G401, 10 µM	0.593
HS729, 0.00017 µM	1.06
HS729, 0.00051 µM	1.09
HS729, 0.00152 µM	1.03
HS729, 0.00457 µM	1.03
HS729, 0.01372 µM	1
HS729, 0.04115 µM	0.987
HS729, 0.1235 µM	1.02
HS729, 0.3704 µM	0.891
HS729, 1.111 µM	0.863
HS729, 3.333 µM	0.726
HS729, 10 µM	0.606
HT1080, 0.00017 µM	1.11
HT1080, 0.00051 µM	1.14
HT1080, 0.00152 µM	1.13
HT1080, 0.00457 µM	1.126
HT1080, 0.01372 µM	1.08
HT1080, 0.04115 µM	1.14
HT1080, 0.1235 µM	1.124
HT1080, 0.3704 µM	1.138
HT1080, 1.111 µM	1.147
HT1080, 3.333 µM	1.13
HT1080, 10 µM	1.07
KHOS-240S, 0.00017 µM	1.05
KHOS-240S, 0.00051 µM	1.11
KHOS-240S, 0.00152 µM	1.08
KHOS-240S, 0.00457 µM	1.09
KHOS-240S, 0.01372 µM	1.06
KHOS-240S, 0.04115 µM	1.04
KHOS-240S, 0.1235 µM	1.05
KHOS-240S, 0.3704 µM	1.02
KHOS-240S, 1.111 µM	0.952
KHOS-240S, 3.333 µM	0.9
KHOS-240S, 10 µM	0.777
KHOS-NP, 0.00017 µM	1.09
KHOS-NP, 0.00051 µM	1.09
KHOS-NP, 0.00152 µM	1.1
KHOS-NP, 0.00457 µM	1.1
KHOS-NP, 0.01372 µM	1.121
KHOS-NP, 0.04115 µM	1.09
KHOS-NP, 0.1235 µM	1.07
KHOS-NP, 0.3704 µM	1.07
KHOS-NP, 1.111 µM	1.08
KHOS-NP, 3.333 µM	1.07
KHOS-NP, 10 µM	1.07
RD, 0.00017 µM	1.08
RD, 0.00051 µM	1.1
RD, 0.00152 µM	1.13
RD, 0.00457 µM	1.11
RD, 0.01372 µM	1.12
RD, 0.04115 µM	1.11
RD, 0.1235 µM	1.08
RD, 0.3704 µM	1.07
RD, 1.111 µM	0.994
RD, 3.333 µM	0.84
RD, 10 µM	0.619
RD-ES, 0.00017 µM	0.991
RD-ES, 0.00051 µM	1.01
RD-ES, 0.00152 µM	1.04
RD-ES, 0.00457 µM	1.04
RD-ES, 0.01372 µM	1.02
RD-ES, 0.04115 µM	0.996
RD-ES, 0.1235 µM	0.956
RD-ES, 0.3704 µM	0.932
RD-ES, 1.111 µM	0.845
RD-ES, 3.333 µM	0.726
RD-ES, 10 µM	0.551
SK-LMS-1, 0.00017 µM	1.05
SK-LMS-1, 0.00051 µM	1.04
SK-LMS-1, 0.00152 µM	1.08
SK-LMS-1, 0.00457 µM	1.05
SK-LMS-1, 0.01372 µM	1.03
SK-LMS-1, 0.04115 µM	0.9363
SK-LMS-1, 0.1235 µM	0.91
SK-LMS-1, 0.3704 µM	0.811
SK-LMS-1, 1.111 µM	0.688
SK-LMS-1, 3.333 µM	0.572
SK-LMS-1, 10 µM	0.438
SW684, 0.00017 µM	1.15
SW684, 0.00051 µM	1.11
SW684, 0.00152 µM	1.09
SW684, 0.00457 µM	0.899
SW684, 0.01372 µM	0.838
SW684, 0.04115 µM	0.722
SW684, 0.1235 µM	0.683
SW684, 0.3704 µM	0.633
SW684, 1.111 µM	0.543
SW684, 3.333 µM	0.501
SW684, 10 µM	0.453
SW872, 0.00017 µM	1.11
SW872, 0.00051 µM	1.1
SW872, 0.00152 µM	1.08
SW872, 0.00457 µM	1.11
SW872, 0.01372 µM	1.08
SW872, 0.04115 µM	1.03
SW872, 0.1235 µM	1.02
SW872, 0.3704 µM	0.897
SW872, 1.111 µM	0.813
SW872, 3.333 µM	0.666
SW872, 10 µM	0.519
SW1353, 0.00017 µM	1.074
SW1353, 0.00051 µM	1.06
SW1353, 0.00152 µM	1.03
SW1353, 0.00457 µM	1.02
SW1353, 0.01372 µM	1.02
SW1353, 0.04115 µM	0.996
SW1353, 0.1235 µM	0.915
SW1353, 0.3704 µM	0.885
SW1353, 1.111 µM	0.786
SW1353, 3.333 µM	0.761
SW1353, 10 µM	0.614
SYO-1, 0.00017 µM	1.03
SYO-1, 0.00051 µM	1.01
SYO-1, 0.00152 µM	0.994
SYO-1, 0.00457 µM	0.995
SYO-1, 0.01372 µM	0.9906
SYO-1, 0.04115 µM	1.01
SYO-1, 0.1235 µM	0.925
SYO-1, 0.3704 µM	0.911
SYO-1, 1.111 µM	0.841
SYO-1, 3.333 µM	0.797
SYO-1, 10 µM	0.688
